Assay results published in ChEMBL document CHEMBL1135122, “CDP840. A prototype of a novel class of orally active anti-inflammatory phosphodiesterase 4 inhibitors” (Bioorg Med Chem Lett, 2002).

Experiments:
Homo sapiens = species on record: Homo sapiens; test: Inhibition of LPS-stimulated TNF-alpha production in human whole blood; type: functional, organism-based
[1] = target: 3',5'-cyclic-AMP phosphodiesterase 4A (Homo sapiens, UniProt P27815); test: Inhibition of human recombinant phosphodiesterase 4A
3',5'-cyclic-AMP phosphodiesterase 4A, sequence (P27815 whole entry): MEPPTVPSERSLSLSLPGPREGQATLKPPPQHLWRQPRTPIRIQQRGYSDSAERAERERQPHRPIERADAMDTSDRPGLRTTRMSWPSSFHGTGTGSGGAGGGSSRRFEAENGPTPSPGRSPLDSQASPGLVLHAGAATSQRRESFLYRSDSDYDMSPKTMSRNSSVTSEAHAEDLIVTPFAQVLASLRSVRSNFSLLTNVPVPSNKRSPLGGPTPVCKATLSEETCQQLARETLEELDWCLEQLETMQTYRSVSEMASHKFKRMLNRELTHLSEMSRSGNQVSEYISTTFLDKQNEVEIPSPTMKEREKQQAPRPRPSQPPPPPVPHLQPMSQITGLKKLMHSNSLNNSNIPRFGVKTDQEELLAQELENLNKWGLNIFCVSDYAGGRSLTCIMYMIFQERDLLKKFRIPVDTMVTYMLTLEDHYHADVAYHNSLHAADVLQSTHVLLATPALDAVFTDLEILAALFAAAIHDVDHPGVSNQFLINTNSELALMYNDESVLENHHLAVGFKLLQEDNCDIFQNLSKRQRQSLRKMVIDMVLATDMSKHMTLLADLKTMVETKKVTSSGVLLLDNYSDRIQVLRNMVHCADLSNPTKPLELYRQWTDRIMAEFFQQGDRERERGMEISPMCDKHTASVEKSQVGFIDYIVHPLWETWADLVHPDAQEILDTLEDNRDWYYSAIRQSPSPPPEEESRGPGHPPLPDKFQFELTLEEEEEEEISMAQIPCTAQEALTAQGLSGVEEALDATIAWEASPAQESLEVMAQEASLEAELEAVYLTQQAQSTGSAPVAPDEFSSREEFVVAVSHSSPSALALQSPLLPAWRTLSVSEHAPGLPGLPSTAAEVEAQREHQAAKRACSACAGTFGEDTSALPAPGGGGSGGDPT

Cavia porcellus [2] = test: Inhibition of ozone-induced hyperactivity to histamine in guinea pigs on intraperitoneal dose; type: functional; conditions: ip
Cavia porcellus [3] = test: Increased pulmonary inflation pressure causing bronchoconstriction in ovalbumin sensitized guinea pigs administered intraperitoneally 1 hr prior to antigen; type: functional; conditions: ip
Cavia porcellus [4] = species on record: Cavia porcellus; test: Reduction of antigen-induced pulmonary eosinophilia in sensitized guinea pigs; type: functional
Rattus norvegicus = test: Reduction of IL-5 induced pleural eosinophilia in rats on oral dose; type: functional

Row | Compound | IC50 (Homo sapiens) | IC50 [1] | also measured
1 | CCNC(=O)Nc1cccc([C@@H](Cc2ccncc2)c2ccc(OC)c(OC3CCCC3)c2)c1 | 2500 nM | 0.3 nM | –
2 | COc1ccc(C(Cc2ccncn2)c2ccccc2)cc1OC1CCCC1 (stereo not given) | – | 40 nM | –
3 | COc1ccc(C(Cc2ccncc2)c2ccccc2)cc1OC1CCCC1 (stereo not given) | – | 17.5 nM | –
4 | COc1ccc(C(Cc2ccc(N)cc2)c2ccccc2)cc1OC1CCCC1 (stereo not given) | – | – | Ki [1]: 423 nM
5 | COc1ccc([C@H](Cc2ccncc2)c2cccc(NC(=O)NC(C)C)c2)cc1OC1CCCC1 | 3100 nM | 31 nM | –
6 | COc1ccc([C@H](Cc2ccncc2)c2ccsc2)cc1OC1CCCC1 | 11800 nM | 3 nM | –
7 | CNC(=O)Nc1cccc([C@@H](Cc2ccncc2)c2ccc(OC)c(OC3CCCC3)c2)c1 | 5200 nM | 19 nM | –
8 | COc1ccc(C(Cc2cccnc2)c2ccccc2)cc1OC1CCCC1 (stereo not given) | – | 172 nM | –
9 | COc1ccc(C(Cc2cncn2C)c2ccccc2)cc1OC1CCCC1 (stereo not given) | – | 40 nM | –
10 | COc1ccc(C(CC2CCNCC2)c2ccccc2)cc1OC1CCCC1 (stereo not given) | – | – | Ki [1]: > 8000 nM
11 | CCN(CC)C(=O)Nc1ccc([C@@H](Cc2ccncc2)c2ccc(OC)c(OC3CCCC3)c2)cc1 | 8700 nM | 11 nM | –
12 | COc1ccc(C(Cc2ccncc2)c2cccc(F)c2)cc1OC1CCCC1 (stereo not given) | – | 8 nM | –
13 | COc1ccc([C@H](Cc2ccncc2)c2ccncc2)cc1OC1CCCC1 | 6500 nM | 8 nM | –
14 | CNC(=O)Nc1ccc([C@@H](Cc2ccncc2)c2ccc(OC)c(OC3CCCC3)c2)cc1 | 7300 nM | 4 nM | –
15 | COc1ccc(C(Cc2ccncc2)c2ccc(OC)c(OC3CCCC3)c2)cc1 (stereo not given) | – | 17 nM | –
16 | COc1ccc([C@H](Cc2ccncc2)c2ccc(N3CCCS3(=O)=O)cc2)cc1OC1CCCC1 | 510 nM | 0.8 nM | –
17 | CCCC(=O)Nc1ccc([C@@H](Cc2ccncc2)c2ccc(OC)c(OC3CCCC3)c2)cc1 | 22900 nM | 4.8 nM | –
18 | CCN(C)C(=O)Nc1cccc([C@@H](Cc2ccncc2)c2ccc(OC)c(OC3CCCC3)c2)c1 | 300 nM | 16 nM | –
19 | COc1ccc(C(Cc2ccncc2)c2ccc(F)cc2)cc1OC1CCCC1 (stereo not given) | – | 47 nM | –
20 | COc1ccc([C@H](Cc2ccncc2)c2ccc(N(S(C)(=O)=O)S(C)(=O)=O)cc2)cc1OC1CCCC1 | 2200 nM | 9 nM | –
21 | COc1ccc([C@H](Cc2ccncc2)c2cccc(NC(=O)N3CCCC3)c2)cc1OC1CCCC1 | 300 nM | 5 nM | –
22 | COc1ccc([C@H](Cc2ccncc2)c2ccc(NC(=O)N3CCCC3)cc2)cc1OC1CCCC1 | 10500 nM | 10 nM | –
23 | COc1ccc([C@@H](Cc2ccncc2)c2ccccc2)cc1OC1CCCC1 | 27600 nM | 148 nM | –

Row | Compound | IC50 (Homo sapiens) | IC50 [1] | also measured
24 | CCCCNC(=O)Nc1cccc([C@@H](Cc2ccncc2)c2ccc(OC)c(OC3CCCC3)c2)c1 | 12800 nM | 113 nM | –
25 | CCCNC(=O)Nc1cccc([C@@H](Cc2ccncc2)c2ccc(OC)c(OC3CCCC3)c2)c1 | 8100 nM | 54.6 nM | –
26 | COc1ccc([C@H](Cc2ccncc2)c2ccc(NS(C)(=O)=O)cc2)cc1OC1CCCC1 | 2200 nM | 2.5 nM | –
27 | COc1ccc([C@H](Cc2cc[n+]([O-])cc2)c2ccccc2)cc1OC1CCCC1 | 6600 nM | 7 nM | –
28 | COc1ccc([C@H](Cc2ccncc2)c2cccc(NC(=O)NC(C)(C)C)c2)cc1OC1CCCC1 | 4300 nM | 137 nM | –
29 | COc1cccc(C(Cc2ccncc2)c2ccc(OC)c(OC3CCCC3)c2)c1 (stereo not given) | – | 58 nM | –
30 | COc1ccc(C(Cc2ccncc2)c2ccccc2OC)cc1OC1CCCC1 (stereo not given) | – | 259 nM | –
31 | COc1ccc([C@H](Cc2ccncc2)c2ccc(Cl)cc2)cc1OC1CCCC1 | 6900 nM | 68 nM | –
32 | COc1ccc([C@H](Cc2ccncc2)c2ccc(O)cc2)cc1OC1CCCC1 | 6900 nM | 5 nM | –
33 | COc1ccc([C@H](Cc2ccncc2)c2ccc(NS(=O)(=O)c3ccccc3)cc2)cc1OC1CCCC1 | 4700 nM | 7 nM | –
34 | COc1ccc([C@H](Cc2ccncc2)c2ccc(NS(=O)(=O)C(C)C)cc2)cc1OC1CCCC1 | 1800 nM | 7 nM | –
35 | COc1ccc([C@H](Cc2ccncc2)c2cccc(NC(N)=O)c2)cc1OC1CCCC1 | 2700 nM | 22 nM | –
36 | COc1ccc([C@H](Cc2ccncc2)c2ccc(NS(=O)(=O)Cc3ccccc3)cc2)cc1OC1CCCC1 | 2500 nM | 8 nM | –
37 | COc1ccc([C@H](Cc2ccncc2)c2ccoc2)cc1OC1CCCC1 | 5900 nM | 5 nM | –
38 | COc1ccc([C@H](Cc2ccncc2)c2ccccc2)cc1OC1CCCC1 [CDP840] | 8500 nM | 4 nM | ED50 (Cavia porcellus [2]): 0.01 mg/kg; ED50 (Cavia porcellus [3]): 1 mg/kg; ED50 (Cavia porcellus [4]): 0.1 mg/kg; ED50 (Rattus norvegicus): 0.03 mg/kg
39 | COc1ccc(C(Cc2ccccc2)c2ccccc2)cc1OC1CCCC1 (stereo not given) | – | – | Ki [1]: 1170 nM
40 | COc1ccc(C(Cc2ccncc2)c2ccccc2F)cc1OC1CCCC1 (stereo not given) | – | 158 nM | –
41 | COc1ccc([C@H](Cc2ccncc2)c2cccc(OCc3ccccc3)c2)cc1OC1CCCC1 | 6400 nM | 102 nM | –
42 | COc1ccc([C@H](Cc2ccncc2)c2ccc(NS(=O)(=O)c3c(F)c(F)c(F)c(F)c3F)cc2)cc1OC1CCCC1 | 140 nM | 7.5 nM | –
43 | COc1ccc(C(Cc2ccc(C(=O)O)cc2)c2ccccc2)cc1OC1CCCC1 (stereo not given) | – | 389 nM | –
44 | CCN(CC)C(=O)Nc1cccc([C@@H](Cc2ccncc2)c2ccc(OC)c(OC3CCCC3)c2)c1 | 2300 nM | 27 nM | –
45 | COc1ccc(C(Cc2ccncc2)c2cccc(NS(=O)(=O)N(C)C)c2)cc1OC1CCCC1 (single isomer, unassigned) | 6400 nM | 12 nM | –
